# Measurements taken from article PMC7808986 (Clinical Pharmacokinetics, 2020).
# Several values for one entry are separate records, joined by “and”; a condition that tells them apart may be missing. Identical values can stand only once. Entries after “also recorded” stand apart in the source; their conditions may differ. Like-named read-outs stand apart in the source and are kept apart here. Marks after values point to notes of the source that are not given here.
# Key:
# [1] = format: in vivo, NSCLC patients; conditions: for AUC / Cmax: geomean; for Cmax: Cmax (CV %); for Cmax RD, PPI with milk vs. PPI with water (95% CI): n = 15
# Adverse event monitoring = format: in vivo, NSCLC patients
# [2] = cited from earlier work
# [3] = cited from earlier work; remark: listed apart in the source
# [4] = Milk [n = 30], without and with esomeprazole
# [5] = Water [n = 29], without and with esomeprazole
smiles,measurement,setting,value
C#Cc1cccc(Nc2ncnc3cc(OCCOC)c(OCCOC)cc23)c1 [erlotinib],"Tmax (IQR), median",[1]; No PPI with milk [n = 14],2.50 (2.00–3.00) hours
same,Interpatient variability (CV) in AUC24,"[1]; PPI (esomeprazole), with milk",38%
same,Interpatient variability (CV) in AUC24,"[1]; PPI (esomeprazole), with water",61%
same,Increase in Tmax with milk vs water,"[1]; both study arms, non-significant",0.5 h
same,Decrease in erlotinib AUC24 by esomeprazole,"[1]; esomeprazole 40 mg once daily 3 h prior to erlotinib vs no esomeprazole, n = 9",47% and ~50%
same,AUC,"[1]; human, plasma, oral, AUC24 (CV %), No PPI [n = 9], patients in both study arms, corrected for coadministration with milk",20100 ng·h/mL
same,AUC,"[1]; human, plasma, oral, AUC24 (CV %), PPI [n = 9], patients in both study arms, corrected for coadministration with milk",10600 ng·h/mL
same,AUC,"[1]; human, plasma, oral, AUC24 (CV%), No PPI with milk [n = 14]",22400 ng·h/mL
same,Cmax,"[1]; human, plasma, oral, PPI [n = 9], patients in both study arms, corrected for coadministration with milk",750 ng/mL
same,Cmax,"[1]; human, plasma, oral, PPI with milk [n = 15]",820 ng/mL
same,Tmax,"[1]; human, plasma, po",2.52 h
same,AUC,"[1]; human, plasma, po, AUC24 (CV%), No PPI with water [n = 14]",23000 ng·h/mL
same,Cmax,"[1]; human, plasma, po, No PPI with water [n = 14]",1850 ng/mL
same,Cmax,"[1]; human, plasma, po, PPI with water [n = 15]",810 ng/mL
same,"Cmax RD, no-PPI with milk vs. no-PPI with water (95% CI)",[1]; n = 14,6%
same,"Cmax RD, PPI with milk vs. PPI with water (95% CI)",[1],1%
same,"Cmax RD, PPI with milk vs. PPI with water (95% CI)",[1]; listed as Erlotinib,1.5% (− 12 to 17%)
same,Interpatient variability (CV) in AUC24,"[1]; no PPI, with milk",35%
same,Interpatient variability (CV) in AUC24,"[1]; no PPI, with water",37%
same,Decrease in AUC24 when administered with milk compared with water,"[1]; non-PPI patients, non-significant",3%
same,"All events, Grade 1–2",Adverse event monitoring; Baseline [n = 30],29 (97) n (%)
same,"Alopecia, Grade 1–2",Adverse event monitoring; Baseline [n = 30],12 (40) n (%)
same,"Constipation, Grade 1–2",Adverse event monitoring; Baseline [n = 30],5 (17) n (%)
same,"Diarrhea, Grade 1–2",Adverse event monitoring; Baseline [n = 30],6 (20) n (%)
same,"Fatigue, Grade 1–2",Adverse event monitoring; Baseline [n = 30],10 (33) n (%)
same,"Nausea, Grade 1–2",Adverse event monitoring; Baseline [n = 30],1 (3) n (%)
same,"Pain, Grade 1–2",Adverse event monitoring; Baseline [n = 30],5 (17) n (%)
same,"Rash, Grade 1–2",Adverse event monitoring; Baseline [n = 30],23 (77) n (%)
same,"Serious adverse event, Grade 3","Adverse event monitoring; Baseline [n = 30], spinal fracture, not related to study procedures",1 (3%)^a n (%)
same,"All events, Grade 1–2",Adverse event monitoring; [4],28 (93) n (%)
same,"All events, Grade 3",Adverse event monitoring; [4],2 (6) n (%)
same,"Alopecia, Grade 1–2",Adverse event monitoring; [4],11 (37) n (%)
same,"Constipation, Grade 1–2",Adverse event monitoring; [4],3 (10) n (%)
same,"Diarrhea, Grade 1–2",Adverse event monitoring; [4],3 (10) n (%)
same,"Fatigue, Grade 1–2",Adverse event monitoring; [4],6 (20) n (%)
same,"Nausea, Grade 1–2",Adverse event monitoring; [4],3 (10) n (%)
same,"Nausea, Grade 3",Adverse event monitoring; [4],1 (3) n (%)
same,"Pain, Grade 1–2",Adverse event monitoring; [4],9 (30) n (%)
same,"Rash, Grade 1–2",Adverse event monitoring; [4],20 (67) n (%)
same,"Rash, Grade 3",Adverse event monitoring; [4],1 (3) n (%)
same,"All events, Grade 1–2",Adverse event monitoring; [5],28 (97) n (%)
same,"Alopecia, Grade 1–2",Adverse event monitoring; [5],11 (38) n (%)
same,"Constipation, Grade 1–2",Adverse event monitoring; [5],1 (3) n (%)
same,"Diarrhea, Grade 1–2",Adverse event monitoring; [5],3 (10) n (%)
same,"Fatigue, Grade 1–2",Adverse event monitoring; [5],10 (34) n (%)
same,"Nausea, Grade 1–2",Adverse event monitoring; [5],3 (10) n (%)
same,"Pain, Grade 1–2",Adverse event monitoring; [5],7 (24) n (%)
same,"Rash, Grade 1–2",Adverse event monitoring; [5],18 (62) n (%)
same,Difference in toxicities between milk and water periods,Adverse event monitoring; independent of study arm (with and without PPI),"No differences in toxicities were observed; also recorded: Patient-reported toxicity was equal between the milk and water groups, with and without proton pump inhibitors. Hence, cow’s milk can be used as a safe alternative to water for the administration of erlotinib. Concomitant treatment with esomeprazole should be avoided if possible"
same,Patient-reported adverse events during study compared with baseline,Adverse event monitoring; overall,did not increase compared with baseline
same,Increase in exposure,[2]; administered concomitantly with a high-fat meal ref 3,33–66%
same,AUC increase,[2]; high-fat meal taken 2 h after erlotinib administration ref 22,33%
same,Increase in AUC,"[2]; high-fat meal, food and drug taken concomitantly ref 23",66%
Cc1cn(-c2cc(NC(=O)c3ccc(C)c(Nc4nccc(-c5cccnc5)n4)c3)cc(C(F)(F)F)c2)cn1 [nilotinib],Safety of coadministration with yoghurt,[3],considered safe
CS(=O)(=O)CCNCc1ccc(-c2ccc3ncnc(Nc4ccc(OCc5cccc(F)c5)c(Cl)c4)c3c2)o1 [lapatinib],AUC increase,[2]; with a high-fat meal ref 3,up to 325%
same,AUC increase,[2]; with a low-fat meal ref 3,≤ 200%
